Data published in US20250129055A1, “GLUCOSIDE DERIVATIVE, AND PREPARATION METHOD THEREFOR AND APPLICATION THEREOF” (BEIJING INCREASE INNOVATIVE DRUG CO., LTD., priority 2020, published 2025).
Marks after values point to notes of the source that are not given here.

Experiments:
Alloxan diabetic mice = test: Efficacy in Alloxan diabetes model mice; assay type: in vivo
Procedure: Test Example 3 Research on efficacy of the compounds of the present invention in in vivo anti-Alloxan diabetes model mice
Alloxan diabetes mice were used. Normal ICR mice (male, 22-24 g) were randomly divided into groups including normal group, model group (con), positive control group and test compound groups with four different doses (n=11), and the mice without injection of Alloxan were in a normal control group (n=10).
(§1) Mice were administered with drugs by gavage.
Single administration: Mice were fasted for 3 h, and then the fasting blood (0 min) was collected. Then the mice in each group were administered with drugs by gavage. After 1 h, they were administered with a glucose ([…]) solution. Blood was collected at 30 min, 60 min, 120 min, and 180 min after the glucose administration. The blood glucose level was measured using glucose oxidase-peroxidase method, and the area under the blood glucose curve was calculated.
On the 6th day of continuous administration, under the condition of no fasting, blood samples were collected from mice before administration (0 h), 1 h, 2 h, 4 h, 8 h and 24 h after administration to measure blood glucose.
On the 9th day of continuous administration, the mice were fasted for 1 h and then administered with drugs by gavage. An oral glucose tolerance test (OGTT) was performed 1 h after administration.
On the 16th day of continuous administration, under the condition of no fasting, urine samples were collected from mice 1 h after administration to measure the concentration of urine glucose.
On the 22nd day of continuous administration, the mice were fasted for 1 h and then administered with drugs by gavage, and blood samples were collected to measure the fasting blood glucose 1 h after administration.
On the 28th day of continuous administration, under the condition of no fasting, blood samples were collected from mice 1 h after administration to measure the random blood glucose.
On the 32nd day of continuous administration, under the condition of no fasting, blood samples were collected from mice to measure glycosylated hemoglobin (HbA1c).
The data were expressed as mean±SEM (n=10-11). The comparison between multiple groups was performed by one-way analysis of variance, and the comparison between two groups was performed by Dunnett's t test. Statistical graphing was performed using Graphpad Prism software.

[1] = tested on: spontaneous type 2 diabetes mellitus db/db mice; test: Pharmacodynamic effect on spontaneous type 2 diabetes mellitus db/db mice; assay type: in vivo
Procedure: Test example 4 Pharmacodynamic effect of the compounds of the present invention on spontaneous type 2 diabetes mellitus db/db mice
Spontaneous type 2 diabetes mellitus db/db mice and the normal control db/m mice (male, 5-6 weeks old) were used. The db/db mice were randomly divide into […] based on random blood glucose, fasting blood glucose, percentage of blood glucose reduction at 40 min, blood triglycerides, total blood cholesterol, and body weight, which were model group (con), positive control group and three groups of test compound with different doses (n=10).
as §1
The mice were fasted for 2 h, and then the 0 h (fasting) blood samples were collected. Then the mice in each group were administered with drugs by gavage, and blood samples were collected at 1 h, 2 h, 4 h, 6 h, 8 h and 24 h after administration. The blood glucose level was measured using glucose oxidase-peroxidase method, and the area under the blood glucose curve was calculated. Moreover, urine samples were collected 2 h and 4 h after administration to determine the concentration of urine glucose.
On the 15th day of continuous administration, before the mice were fasted, blood samples were collected to measure the random blood glucose. Then the mice were fasted and administered with the compounds, and after 2 h, blood samples were collected to measure the fasting blood glucose. […]
The data were expressed as mean±SEM (n=10). The comparison between multiple groups was performed by one-way analysis of variance, and the comparison between two groups was performed by Dunnett's t test. Statistical graphing was performed using Graphpad Prism software.

CCOc1ccc(Cc2cc([C@@H]3O[C@H](CO)[C@@H](O)[C@H](O)[C@H]3O)ccc2Cl)cc1 [Dapagliflozin, reference compound]
Concentration of fasting blood glucose, the 9th day (Alloxan diabetic mice; 2.0 mg/kg, 9th day): 256.7 ± 14.4 mg/dL | Concentration of fasting blood glucose, the 22nd day (Alloxan diabetic mice; 2.0 mg/kg, 22nd day): 316.5 ± 18.6 mg/dL | HbA1c (Alloxan diabetic mice; 2.0 mg/kg, 32nd day): 6.6 ± 0.5% | AUC of blood glucose (Alloxan diabetic mice; 2.0 mg/kg, OGTT on the 9th day): 463.3 ± 28.0 mg·h/dL | Concentration of blood glucose 0 min (Alloxan diabetic mice; 2.0 mg/kg, OGTT on the 9th day, 0 min): 256.7 ± 14.4 mg/dL | Concentration of blood glucose 30 min (Alloxan diabetic mice; 2.0 mg/kg, OGTT on the 9th day, 30 min): 278.3 ± 17.6 mg/dL | Concentration of blood glucose 60 min (Alloxan diabetic mice; 2.0 mg/kg, OGTT on the 9th day, 60 min): 227.3 ± 13.5 mg/dL | Concentration of blood glucose 120 min (Alloxan diabetic mice; 2.0 mg/kg, OGTT on the 9th day, 120 min): 178.9 ± 20.8 mg/dL | AUC of blood glucose (Alloxan diabetic mice; 2.0 mg/kg, non-fasting, 6th day, 0-24 h): 13216 ± 440.8 mg·h/dL | Concentration of blood glucose 1 h (Alloxan diabetic mice; 2.0 mg/kg, non-fasting, 6th day, 1 h after administration): 433.7 ± 19.5 mg/dL | Concentration of blood glucose 2 h (Alloxan diabetic mice; 2.0 mg/kg, non-fasting, 6th day, 2 h after administration): 425.1 ± 22.5 mg/dL | Concentration of blood glucose 4 h (Alloxan diabetic mice; 2.0 mg/kg, non-fasting, 6th day, 4 h after administration): 343.1 ± 17.8 mg/dL | Concentration of blood glucose 8 h (Alloxan diabetic mice; 2.0 mg/kg, non-fasting, 6th day, 8 h after administration): 522.7 ± 34.0 mg/dL | Concentration of blood glucose 24 h (Alloxan diabetic mice; 2.0 mg/kg, non-fasting, 6th day, 24 h after administration): 697.7 ± 17.6 ^ mg/dl | Concentration of blood glucose 0 h (Alloxan diabetic mice; 2.0 mg/kg, non-fasting, 6th day, before administration): 614.3 ± 9.6 ^ mg/dl | Concentration of blood glucose (random) (Alloxan diabetic mice; 2.0 mg/kg, random blood glucose on the 28th day): 499.3 ± 13.0 mg/dL | Duration of hypoglycemic effect (Alloxan diabetic mice; 6th day, dapagliflozin 2.0 mg/kg, Compound 2 0.25-2.0 mg/kg): no significant effect after 24 h | AUC of blood glucose ([1]; 2.0 mg/kg single administration, 0-24 h): 8866 ± 361.1***^ mg/dl · h | Concentration of blood glucose 0 h ([1]; 2.0 mg/kg single administration, fasting, 0 h before administration): 488.5 ± 29.2 mg/dL | Concentration of blood glucose 1 h ([1]; 2.0 mg/kg single administration, fasting, 1 h): 386.4 ± 16.5 mg/dL | Concentration of blood glucose 2 h ([1]; 2.0 mg/kg single administration, fasting, 2 h): 333.8 ± 13.9 mg/dL | Concentration of blood glucose 4 h ([1]; 2.0 mg/kg single administration, fasting, 4 h): 265.8 ± 9.1 mg/dL | Concentration of blood glucose 6 h ([1]; 2.0 mg/kg single administration, fasting, 6 h): 209.3 ± 8.0 ^ mg/dl | Concentration of blood glucose 8 h ([1]; 2.0 mg/kg single administration, fasting, 8 h): 176.7 ± 10.2 mg/dL | Concentration of blood glucose 24 h ([1]; 2.0 mg/kg single administration, fasting, 24 h): 649.4 ± 40.0 mg/dL | Fasting blood glucose, the 15th day ([1]; 2.0 mg/kg, 15th day): 183.0 ± 11.2 mg/dL | Random blood glucose, the 15th day ([1]; 2.0 mg/kg, 15th day): 344.7 ± 24.1 mg/dL | Fasting blood glucose, the 22nd day ([1]; 2.0 mg/kg, 22nd day): 191.8 ± 11.0 mg/dL | HbA1c ([1]; 2.0 mg/kg, 28th day): 5.1 ± 0.3 % | Random blood glucose, the 22nd day (title: 28th day) ([1]; 2.0 mg/kg, column head 22nd day, title 28th day): 317.0 ± 16.4 mg/dL
